Test results reported in the supplement of paper PMC10307832.

What was measured:
Assay in all cases: relative viability (nuclei count vs DMSO), 5 days (fraction); higher = more cells survive
Tosedostat + Lapatinib = compound: CC(C)C[C@@H](C(=O)N[C@H](C(=O)OC1CCCC1)c1ccccc1)[C@H](O)C(=O)NO [Tosedostat] + CS(=O)(=O)CCNCc1ccc(-c2ccc3ncnc(Nc4ccc(OCc5cccc(F)c5)c(Cl)c4)c3c2)o1 [Lapatinib] (partner 2 µM)
Method in brief: (§1)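 Each reported value is a median over duplicate plates. It expresses relative viability: treated-well nuclei count divided by vehicle-well nuclei count. Lung cancer cell lines in 1536-well plates were dosed by pin tool a day after seeding, alone with one drug or with a fixed anchor-drug dose plus five library-drug doses (not always all listed) in √10 steps, and nuclei were counted after 5 days.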

[1] = compound: CC1=NN=C(O1)C2=NN=C(C=C2)N3CCC(CC3)OC4=C(C=CC(=C4)F)Cl + NC(=O)Nc1cc(-c2cccc(F)c2)sc1C(=O)N[C@H]1CCCNC1 [AZD7762] (partner 0.2 µM)
Method in brief: as §1

[2] = compound: CC1=NN=C(O1)C2=NN=C(C=C2)N3CCC(CC3)OC4=C(C=CC(=C4)F)Cl + COc1cccc2cc(-c3nc([C@H]4CC[C@H](C(=O)O)CC4)n4ncnc(N)c34)[nH]c12 [OSI-027] (partner 0.5 µM)
Method in brief: as §1

Tosedostat + Foretinib = compound: CC(C)C[C@@H](C(=O)N[C@H](C(=O)OC1CCCC1)c1ccccc1)[C@H](O)C(=O)NO [Tosedostat] + COc1cc2c(Oc3ccc(NC(=O)C4(C(=O)Nc5ccc(F)cc5)CC4)cc3F)ccnc2cc1OCCCN1CCOCC1 [Foretinib] (partner 0.25 µM)
Method in brief: as §1

| Cell Line | relative viability (Tosedostat + Lapatinib; first compound 0.02 µM) | relative viability (Tosedostat + Lapatinib; first compound 0.06325 µM) | relative viability (Tosedostat + Lapatinib; first compound 0.2 µM) | relative viability (Tosedostat + Lapatinib; first compound 0.6325 µM) | relative viability (Tosedostat + Lapatinib; first compound 2 µM) | relative viability ([1]; first compound 0.253 µM) | relative viability ([1]; first compound 0.8 µM) | relative viability ([1]; first compound 2.53 µM) | relative viability ([1]; first compound 8 µM) | relative viability ([2]; first compound 0.253 µM) | relative viability ([2]; first compound 0.8 µM) | relative viability ([2]; first compound 2.53 µM) | relative viability ([2]; first compound 8 µM) | relative viability (Tosedostat + Foretinib; first compound 0.02 µM) | relative viability (Tosedostat + Foretinib; first compound 0.06325 µM) | relative viability (Tosedostat + Foretinib; first compound 0.2 µM) | relative viability (Tosedostat + Foretinib; first compound 0.6325 µM) | relative viability (Tosedostat + Foretinib; first compound 2 µM) |
| --- | --- | --- | --- | --- | --- | --- | --- | --- | --- | --- | --- | --- | --- | --- | --- | --- | --- | --- |
| 201T | 1.05 | 1.06 | 1.06 | 1.09 | 1.13 | 0.447 | 0.481 | 0.531 | 0.505 | 0.383 | 0.536 | 0.583 | 0.504 | 1.11 | 1.24 | 1.22 | 1.32 | 1.17 |
| A549 | 1 | 1.07 | 0.957 | 0.925 | 0.939 | – | – | – | – | – | – | – | – | 0.925 | 0.967 | 0.998 | 0.974 | 0.652 |
| A-427 | 1.13 | 1.1 | 1.01 | 1.02 | 0.995 | 0.726 | 0.526 | 0.824 | 0.724 | 0.498 | – | 0.428 | 0.404 | 0.979 | 1 | 1.07 | 1.12 | 0.877 |
| ABC-1 | 1.34 | 1.12 | 1.2 | 1.19 | 1.23 | 0.852 | 0.712 | 0.597 | 0.45 | 0.244 | 0.326 | 0.411 | 0.47 | 1.23 | 0.971 | 1.02 | 1.18 | 1.11 |
| BEN | 0.924 | 0.936 | 0.68 | 0.987 | 0.702 | 0.681 | 0.752 | 0.878 | 0.729 | 0.309 | 0.28 | 0.309 | 0.318 | 0.713 | 0.825 | 0.799 | 0.878 | 0.846 |
| CAL-12T | 0.545 | 0.7 | 0.728 | 0.669 | 0.678 | 0.637 | 0.586 | 0.606 | 0.479 | 0.54 | 0.705 | 0.668 | 0.513 | 1.15 | 1.04 | 1.22 | 1.11 | 1.05 |
| COR-L23 | 1.03 | 0.946 | 0.918 | 0.817 | 0.99 | – | – | – | – | 0.654 | 0.558 | 0.586 | 0.389 | 1.04 | 1.03 | 0.975 | 1.07 | 1.06 |
| COR-L 105 | 0.415 | 0.412 | 0.326 | 0.416 | 0.358 | – | – | – | – | 0.702 | 0.687 | 0.908 | 0.769 | 1.3 | 0.8 | 1.06 | 0.753 | 0.69 |
| Calu-6 | 1.33 | 1.04 | 0.951 | 0.899 | 0.864 | – | – | – | – | – | – | – | – | 1.04 | 0.858 | 0.826 | 0.638 | 0.559 |
| ChaGo-K-1 | – | – | – | – | – | 0.588 | 0.529 | 0.705 | 0.594 | 0.506 | 0.422 | 0.597 | 0.398 | 0.911 | 0.934 | 0.976 | 0.833 | 0.709 |
| EBC-1 | 0.241 | 0.245 | 0.195 | 0.22 | 0.17 | – | – | – | – | – | – | – | – | 0.112 | 0.0828 | 0.0952 | 0.115 | 0.117 |
| EKVX | 0.19 | 0.233 | 0.418 | 0.218 | 0.227 | 0.517 | 0.434 | 0.465 | 0.535 | 0.481 | 0.465 | 0.362 | 0.423 | 0.649 | 0.759 | 0.795 | 0.736 | 0.729 |
| EMC-BAC-2 | 0.894 | 0.888 | 0.894 | 0.853 | 0.955 | 1.07 | 0.929 | 1.1 | 1.03 | 0.441 | 0.382 | 0.354 | 0.417 | 0.954 | 1.02 | 0.999 | 1.1 | 0.838 |
| EPLC-272H | 1.03 | 0.944 | 0.637 | 0.755 | 0.621 | 0.236 | 0.369 | 0.268 | 0.197 | 0.283 | 0.248 | 0.26 | 0.298 | 0.658 | 0.512 | 0.58 | 0.355 | 0.185 |
| H3255 | 0.262 | 0.227 | 0.224 | 0.255 | 0.253 | 0.633 | 0.663 | 0.628 | 0.639 | 0.578 | 0.581 | 0.545 | 0.511 | 0.871 | 0.902 | 1.02 | 0.709 | 0.796 |
| HARA | 0.756 | 0.797 | 0.611 | 0.775 | 0.574 | 0.416 | 0.305 | 0.387 | 0.337 | 0.404 | 0.206 | 0.359 | 0.348 | 0.941 | 0.914 | 0.852 | 0.813 | 0.787 |
| HCC-15 | 0.949 | 0.882 | 0.748 | 0.746 | 0.708 | 0.733 | 0.571 | 0.639 | 0.608 | 0.605 | 0.573 | 0.532 | 0.522 | 1.08 | 0.995 | 1.02 | 0.96 | 0.849 |
| HCC-44 | 1.04 | 0.994 | 0.94 | 0.937 | 0.678 | 0.388 | 0.609 | 0.495 | 0.452 | 0.391 | 0.53 | 0.344 | 0.389 | – | – | – | – | – |
| HCC-78 | 0.647 | 0.764 | 0.684 | 0.841 | 0.746 | 0.457 | 0.483 | 0.463 | 0.373 | 0.414 | 0.369 | 0.348 | 0.335 | 0.518 | 0.59 | 0.545 | 0.662 | 0.684 |
| HCC-366 | 1.12 | 0.954 | 1 | 0.993 | 0.997 | 0.118 | 0.144 | 0.225 | 0.173 | 0.32 | 0.399 | 0.393 | 0.407 | 0.913 | 0.948 | 0.972 | 0.927 | 0.935 |
